The record followed here is ChEMBL document CHEMBL3046369, “Synthesis of novel optically pure -amino acid functionalised-7-trifluoromethyl substituted quinolone derivatives and their antibacterial activity” (2013).

Format in all cases: functional
The subject of one experiment is Staphylococcus aureus. Briefly: Antibacterial activity against Staphylococcus aureus assessed as growth inhibition by microtitration method.
The next experiment concerns Pseudomonas aeruginosa. Briefly: Antibacterial activity against Pseudomonas aeruginosa assessed as growth inhibition by microtitration method.
A further experiment concerns Bacillus subtilis. Briefly: Antibacterial activity against Bacillus subtilis assessed as growth inhibition by microtitration method.
Another experiment has as its system Klebsiella aerogenes. Briefly: Antibacterial activity against Enterobacter aerogenes assessed as growth inhibition by microtitration method.
Experiment [1] concerns Staphylococcus epidermidis. Briefly: Antibacterial activity against Staphylococcus epidermidis assessed as growth inhibition by microtitration method.
In the next experiment the test system is Escherichia coli. Briefly: Antibacterial activity against Escherichia coli assessed as growth inhibition by microtitration method.

One may read the MIC as the smallest concentration in the dilution series that meets the test's criterion for growth inhibition. As for `CCOC(=O)[C@@H](Cc1ccccc1)NC(=O)c1cn(CC)c2cc(C(F)(F)F)ccc2c1=O`, the MIC (with Staphylococcus aureus; in the experiment on Pseudomonas aeruginosa; in the experiment with Bacillus subtilis; with Klebsiella aerogenes; in experiment [1]; in the experiment with Escherichia coli) was 25 µg/mL each time.
As to `CCn1cc(C(=O)N[C@@H](CC(C)C)C(=O)O)c(=O)c2ccc(C(F)(F)F)cc21`, the MIC worked out at 25 µg/mL in the experiment on Staphylococcus aureus; 6.25 µg/mL in the experiment with Pseudomonas aeruginosa; 25 µg/mL in the experiment with Bacillus subtilis; 12.5 µg/mL in the experiment on Klebsiella aerogenes; 6.25 µg/mL in experiment [1]; 12.5 µg/mL in the experiment on Escherichia coli.
For the molecule `CCn1cc(C(=O)N[C@@H](Cc2ccccc2)C(=O)O)c(=O)c2ccc(C(F)(F)F)cc21`, the MIC in the experiment with Staphylococcus aureus stood at 12.5 µg/mL; in the experiment with Pseudomonas aeruginosa, 3.12 µg/mL; in the experiment on Bacillus subtilis it was 50 µg/mL; in the experiment with Klebsiella aerogenes it was 6.25 µg/mL; in experiment [1] it was 3.12 µg/mL; in the experiment with Escherichia coli, 12.5 µg/mL.
In the case of `CCn1cc(C(=O)N[C@H](C)C(=O)O)c(=O)c2ccc(C(F)(F)F)cc21`, the minimal inhibitory concentration (MIC) stood at 25 µg/mL in the experiment with Staphylococcus aureus; 12.5 µg/mL with Pseudomonas aeruginosa; 50 µg/mL with Bacillus subtilis; 25 µg/mL in the experiment with Klebsiella aerogenes; 25 µg/mL in experiment [1]; 12.5 µg/mL in the experiment with Escherichia coli.
For `CCn1cc(C(=O)N[C@H](Cc2ccccc2)C(=O)O)c(=O)c2ccc(C(F)(F)F)cc21`, the MIC in the experiment with Staphylococcus aureus was 25 µg/mL; in the experiment with Pseudomonas aeruginosa, 25 µg/mL; in the experiment with Bacillus subtilis it was 25 µg/mL; with Klebsiella aerogenes, 12.5 µg/mL; in experiment [1], 25 µg/mL; in the experiment with Escherichia coli it was 25 µg/mL.
For the molecule `CCn1cc(C(=O)N2CCC[C@H]2C(=O)O)c(=O)c2ccc(C(F)(F)F)cc21`, the MIC was found to be 25 µg/mL in the experiment on Staphylococcus aureus; 6.25 µg/mL with Pseudomonas aeruginosa; 25 µg/mL in the experiment with Bacillus subtilis; 6.25 µg/mL in the experiment with Klebsiella aerogenes; 6.25 µg/mL in experiment [1]; 12.5 µg/mL in the experiment with Escherichia coli.
Turning to `CCOC(=O)[C@@H]1CCCN1C(=O)c1cn(CC)c2cc(C(F)(F)F)ccc2c1=O`, the MIC in the experiment with Staphylococcus aureus worked out at 25 µg/mL; with Pseudomonas aeruginosa, 6.25 µg/mL; in the experiment on Bacillus subtilis, 50 µg/mL; in the experiment on Klebsiella aerogenes, 12.5 µg/mL; in experiment [1], 25 µg/mL; with Escherichia coli it was 25 µg/mL.
Regarding `CCn1cc(C(=O)N[C@@H](C)C(=O)O)c(=O)c2ccc(C(F)(F)F)cc21`, the MIC with Staphylococcus aureus was found to be 12.5 µg/mL; with Pseudomonas aeruginosa, 25 µg/mL; with Bacillus subtilis it was 50 µg/mL; with Klebsiella aerogenes, 12.5 µg/mL; in experiment [1], 6.25 µg/mL; in the experiment with Escherichia coli, 12.5 µg/mL.
`CCn1cc(C(=O)N[C@H](C(=O)O)C(C)C)c(=O)c2ccc(C(F)(F)F)cc21`: the MIC with Staphylococcus aureus was 12.5 µg/mL; in the experiment with Pseudomonas aeruginosa, 6.25 µg/mL; with Bacillus subtilis it was 50 µg/mL; in the experiment with Klebsiella aerogenes it was 3.12 µg/mL; in experiment [1] it was 6.25 µg/mL; in the experiment with Escherichia coli, 12.5 µg/mL.
On to `CC[C@@H](C)[C@H](NC(=O)c1cn(CC)c2cc(C(F)(F)F)ccc2c1=O)C(=O)O`, for which the MIC was 25 µg/mL with Staphylococcus aureus; 6.25 µg/mL in the experiment with Pseudomonas aeruginosa; 25 µg/mL with Bacillus subtilis; 12.5 µg/mL in the experiment with Klebsiella aerogenes; 6.25 µg/mL in experiment [1]; 12.5 µg/mL in the experiment with Escherichia coli.
For the molecule `C[C@H](NC(=O)c1cnc2cc(C(F)(F)F)ccc2c1O)C(=O)O`, the MIC in the experiment on Staphylococcus aureus was 25 µg/mL; with Pseudomonas aeruginosa, 25 µg/mL; with Bacillus subtilis, 50 µg/mL; in the experiment with Klebsiella aerogenes, 50 µg/mL; in experiment [1], 25 µg/mL; with Escherichia coli, 25 µg/mL.
Turning to `CC(C)[C@H](NC(=O)c1cnc2cc(C(F)(F)F)ccc2c1O)C(=O)O`, the MIC was 25 µg/mL with Staphylococcus aureus; 25 µg/mL with Pseudomonas aeruginosa; 50 µg/mL in the experiment on Bacillus subtilis; 25 µg/mL with Klebsiella aerogenes; 25 µg/mL in experiment [1]; 25 µg/mL in the experiment with Escherichia coli.
As to `CC[C@@H](C)[C@H](NC(=O)c1cnc2cc(C(F)(F)F)ccc2c1O)C(=O)O`, the MIC amounted to 25 µg/mL with Staphylococcus aureus; 25 µg/mL with Pseudomonas aeruginosa; 50 µg/mL with Bacillus subtilis; 25 µg/mL in the experiment on Klebsiella aerogenes; 25 µg/mL in experiment [1]; 25 µg/mL in the experiment with Escherichia coli.
As to `CC(C)C[C@H](NC(=O)c1cnc2cc(C(F)(F)F)ccc2c1O)C(=O)O`, the MIC with Staphylococcus aureus turned out to be 25 µg/mL; in the experiment on Pseudomonas aeruginosa it was 25 µg/mL; in the experiment on Bacillus subtilis, 50 µg/mL; in the experiment with Klebsiella aerogenes it was 25 µg/mL; in experiment [1] it was 25 µg/mL; in the experiment on Escherichia coli it was 25 µg/mL.
Regarding `O=C(N[C@@H](Cc1ccccc1)C(=O)O)c1cnc2cc(C(F)(F)F)ccc2c1O`, the MIC in the experiment on Staphylococcus aureus stood at 12.5 µg/mL; in the experiment on Pseudomonas aeruginosa it was 25 µg/mL; in the experiment on Bacillus subtilis, 50 µg/mL; in the experiment with Klebsiella aerogenes, 25 µg/mL; in experiment [1], 25 µg/mL; in the experiment on Escherichia coli it was 25 µg/mL.
Consider `C[C@@H](NC(=O)c1cnc2cc(C(F)(F)F)ccc2c1O)C(=O)O`, for which the MIC in the experiment on Staphylococcus aureus stood at 25 µg/mL; with Pseudomonas aeruginosa, 6.12 µg/mL; with Bacillus subtilis, 50 µg/mL; with Klebsiella aerogenes, 25 µg/mL; in experiment [1], 12.5 µg/mL; with Escherichia coli it was 25 µg/mL.
Consider `O=C(N[C@H](Cc1ccccc1)C(=O)O)c1cnc2cc(C(F)(F)F)ccc2c1O`, for which the MIC in the experiment with Staphylococcus aureus amounted to 25 µg/mL; with Pseudomonas aeruginosa it was 6.12 µg/mL; in the experiment with Bacillus subtilis it was 50 µg/mL; with Klebsiella aerogenes it was 12.5 µg/mL; in experiment [1], 25 µg/mL; in the experiment on Escherichia coli, 25 µg/mL.
As to `O=C(O)[C@@H]1CCCN1C(=O)c1cnc2cc(C(F)(F)F)ccc2c1O`, the MIC was found to be 25 µg/mL with Staphylococcus aureus; 25 µg/mL with Pseudomonas aeruginosa; 50 µg/mL in the experiment on Bacillus subtilis; 25 µg/mL with Klebsiella aerogenes; 50 µg/mL in experiment [1]; 25 µg/mL with Escherichia coli.
`CCOC(=O)[C@H](C)NC(=O)c1cn(CC)c2cc(C(F)(F)F)ccc2c1=O`: the MIC in the experiment on Staphylococcus aureus worked out at 50 µg/mL; in the experiment with Pseudomonas aeruginosa, 25 µg/mL; in the experiment on Bacillus subtilis, 25 µg/mL; in the experiment on Klebsiella aerogenes, 12.5 µg/mL; in experiment [1] it was 6.25 µg/mL; with Escherichia coli, 25 µg/mL.
As for `CCOC(=O)[C@@H](NC(=O)c1cn(CC)c2cc(C(F)(F)F)ccc2c1=O)C(C)C`, the MIC in the experiment on Staphylococcus aureus stood at 25 µg/mL; in the experiment on Pseudomonas aeruginosa it was 25 µg/mL; in the experiment with Bacillus subtilis it was 25 µg/mL; in the experiment on Klebsiella aerogenes, 12.5 µg/mL; in experiment [1], 25 µg/mL; in the experiment with Escherichia coli, 25 µg/mL.
On to `CCOC(=O)[C@@H](NC(=O)c1cn(CC)c2cc(C(F)(F)F)ccc2c1=O)[C@H](C)CC`, for which the MIC in the experiment on Staphylococcus aureus amounted to 25 µg/mL; with Pseudomonas aeruginosa, 25 µg/mL; in the experiment with Bacillus subtilis, 50 µg/mL; with Klebsiella aerogenes, 12.5 µg/mL; in experiment [1], 25 µg/mL; in the experiment with Escherichia coli it was 25 µg/mL.
For `CCOC(=O)[C@H](CC(C)C)NC(=O)c1cn(CC)c2cc(C(F)(F)F)ccc2c1=O`, the minimal inhibitory concentration (MIC) amounted to 25 µg/mL in the experiment on Staphylococcus aureus; 6.25 µg/mL in the experiment with Pseudomonas aeruginosa; 50 µg/mL with Bacillus subtilis; 12.5 µg/mL in the experiment with Klebsiella aerogenes; 25 µg/mL in experiment [1]; 25 µg/mL in the experiment with Escherichia coli.
`CCOC(=O)[C@H](Cc1ccccc1)NC(=O)c1cn(CC)c2cc(C(F)(F)F)ccc2c1=O`: the MIC in the experiment on Staphylococcus aureus was 25 µg/mL; with Pseudomonas aeruginosa it was 6.25 µg/mL; in the experiment with Bacillus subtilis, 50 µg/mL; in the experiment on Klebsiella aerogenes, 6.25 µg/mL; in experiment [1], 6.25 µg/mL; with Escherichia coli, 12.5 µg/mL.
In the case of `CCOC(=O)[C@@H](C)NC(=O)c1cn(CC)c2cc(C(F)(F)F)ccc2c1=O`, the MIC turned out to be 25 µg/mL with Staphylococcus aureus; 6.12 µg/mL in the experiment with Pseudomonas aeruginosa; 25 µg/mL with Bacillus subtilis; 12.5 µg/mL in the experiment on Klebsiella aerogenes; 25 µg/mL in experiment [1]; 25 µg/mL in the experiment with Escherichia coli.
Consider `O=C(O)c1cn(C2CC2)c2cc(N3CCNCC3)c(F)cc2c1=O` [CIPROFLOXACIN], for which the minimum inhibitory concentration (MIC) with Staphylococcus aureus came to 0.048 µg/mL; with Pseudomonas aeruginosa it was 0.012 µg/mL; in the experiment on Bacillus subtilis it was 0.048 µg/mL; in the experiment with Klebsiella aerogenes, 0.012 µg/mL; in experiment [1], 0.012 µg/mL.
